Biological target: T1, human bradykinin B2 receptor (hB2R) (Homo sapiens, UniProt P30411)
T1 sequence (P30411 1-391): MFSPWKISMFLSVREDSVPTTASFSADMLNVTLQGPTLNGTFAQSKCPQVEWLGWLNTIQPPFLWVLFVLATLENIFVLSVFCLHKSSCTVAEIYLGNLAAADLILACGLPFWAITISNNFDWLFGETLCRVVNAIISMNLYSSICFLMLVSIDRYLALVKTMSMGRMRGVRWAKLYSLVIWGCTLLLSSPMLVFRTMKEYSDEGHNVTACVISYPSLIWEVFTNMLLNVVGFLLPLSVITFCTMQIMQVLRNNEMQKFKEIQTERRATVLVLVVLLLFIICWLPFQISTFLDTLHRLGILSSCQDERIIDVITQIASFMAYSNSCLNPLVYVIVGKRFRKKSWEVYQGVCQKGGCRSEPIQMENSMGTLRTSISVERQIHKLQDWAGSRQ
Assay: cell-based human bradykinin B2 receptor calcium mobilization (hB2R-CaM) assay
Details: HTS041C cells, bradykinin at EC80, calcium mobilization; read-out: IC50-value towards human bradykinin B2 receptor (hB2R)
Description: The following cell-based human bradykinin B2 receptor calcium mobilization (hB2R-CaM) assay was used to determine the antagonistic activity of compounds selected from the example compounds Nos. 1 to 168 towards human bradykinin B2 receptor (hB2R). The assay is defined herein as a standard in vitro B2 receptor activity assay, which can be used to determine IC50 values of the compounds according to the present invention, e. g. the compounds shown in Examples 1-11.
The antagonistic activity of compounds according to the present invention was investigated with the hB2R-CaM assay using the B2 Bradykinin Receptor Stable Cell Line HTS041C (Eurofins, St. Charles MO) and the FLIPR Calcium 6 Assay Kit (Molecular Devices, Wokingham, UK) according to the instructions of the providers. CaM assay measurements were performed with a Flexstation 3 System (Molecular Devices) which allows the precise addition of compounds (B2R antagonists) and bradykinin (B2R agonist) to the cells and adjacent continuous recording of the time-dependent CaM assay signals.
HTS041C cells were cultured in high glucose DMEM cell culture medium (Lonza) supplemented with 10% heat-inactivated FBS (PAN Biotech), 10 mM HEPES, Penicillin/Streptomycin (200 U/mL, 200 μg/mL), 1× non-essential amino acids (Lonza), and 250 μg/mL G418 (Invivogen) in cell incubator at 37° C. in a 5% CO2 atmosphere.
One day before the CaM assay experiments cells were seeded in 200 μL DMEM cell culture medium with reduced FBS (5%) and without G418 on clear bottom black 96 well plates (ThermoFisher #165305). Cell starvation was carried out by incubation (37° C., 5% CO2) of 70.000 cells/well for 24 h to 28 h. Immediately prior calcium dye-loading the medium was carefully aspirated and cells were washed with Hank's balanced salt solution (HBSS, Gibco) containing Ca^2+, Mg^2+ and 20 mM HEPES, adjusted to pH 7.4 (HBSS+). Calcium Dye Loading of the Cells:
For calcium dye-loading one FLIPR 6 assay aliquot was dissolved in 20 mL HBSS+. 150 μL of the dye loading solution was added to cell plate and incubated for 120 min at 37° C. and 5% CO2. After dye loading the cell plate was immediately transferred to the pre-warmed (37° C.) Flexstation 3 System for CaM assaying.
Freshly prepared compound (B2 receptor antagonists) dilution series (8 pt, n=2) and bradykinin (B2 receptor agonist) solution in non-binding plates (Costar) were transferred to the Flexstation System (source plate) shortly before starting the experiment. Bradykinin was added in EC80 concentration determined in n>3 preliminary experiments with 8 pt concentration response curves (n=8)). CaM assay was executed by Flexstation 3 System starting with recording of calcium-sensitive dye fluorescence in bottom-read Flex modus with ex/em=485 nm/525 nm, cut off(em)=[…]. After 20 s, 50 μL of 4-fold concentrated compound dilutions were added to the cells resulting in a final DMSO (Sigma) concentration of 0.1% in the cell plate. CaM signals were monitored for 80 s after additions for detection of potential agonistic activities. Prior to bradykinin stimulus compound- and vehicle-treated cells were incubated for 25 min at 37° C. within the Flexstation System. Then 50 μL of a 5-fold concentrated bradykinin solution (HBSS+, 0.1% DMSO) was added to trigger CaM signals (Read out: Max-Min values) which were measured for 80 s post bradykinin stimulus.
IC50 determinations were performed by 4 parameter logistic model curve fitting of the 8 pt (n=2) compound concentration response curves using XLFIT (IDBS) software.
Relative IC50 values of the test compounds were determined with the same hB2R-CaM assay as in Example 12.

| Structure (SMILES) | IC50 [nM] |
| --- | --- |
| Cc1cc(-n2cc(F)cn2)c2cccc(OCc3c(Cl)cc(F)cc3[C@H](C)NC(=O)C(C)OCC3CC3)c2n1 (some centres unmarked) [Compound 51] | 51 to 250 |
| Cc1cc(-n2cc(F)cn2)c2cccc(OCc3c(Cl)cc(F)cc3[C@H](C)NC(=O)[C@@](C)(O)C(F)(F)F)c2n1 [Compound 52] | 251 to 1000 |
| Cc1cc(-n2cc(F)cn2)c2cccc(OCc3c(Cl)cc(F)cc3[C@H](C)NC(=O)[C@](C)(O)C(F)(F)F)c2n1 [Compound 53] | 251 to 1000 |
| Cc1cc(-n2cc(F)cn2)c2cccc(OCc3c(Cl)cc(F)cc3[C@H](C)NC(=O)C(C)C(F)(F)F)c2n1 (some centres unmarked) [Compound 54] | 51 to 250 |
| CC(=O)C(=O)N[C@@H](C)c1cc(F)cc(Cl)c1COc1cccc2c(-n3cc(F)cn3)cc(C)nc12 [Compound 55] | 251 to 1000 |
| Cc1cc(-n2cc(F)cn2)c2cccc(OCc3c(Cl)cc(F)cc3[C@H](C)NC(=O)C3CCO3)c2n1 (some centres unmarked) [Compound 56] | ≤ 50 |
| Cc1cc(-n2cc(F)cn2)c2cccc(OCc3c(Cl)cc(F)cc3[C@H](C)NC(=O)C3COC3)c2n1 [Compound 57] | ≤ 50 |
| Cc1cc(-n2cc(F)cn2)c2cccc(OCc3c(Cl)cc(F)cc3[C@H](C)NC(=O)C3(C)COC3)c2n1 [Compound 58] | ≤ 50 |
| Cc1cc(-n2cc(F)cn2)c2cccc(OCc3c(Cl)cc(F)cc3[C@H](C)NC(=O)[C@H](C)CO)c2n1 [Compound 59] | ≤ 50 |
| Cc1cc(-n2cc(F)cn2)c2cccc(OCc3c(Cl)cc(F)cc3[C@H](C)NC(=O)C(C)(C)CO)c2n1 [Compound 60] | ≤ 50 |
| Cc1cc(-n2cc(F)cn2)c2cccc(OCc3c(Cl)cc(F)cc3[C@H](C)NC(=O)[C@@H]3COC(C)(C)O3)c2n1 [Compound 61] | ≤ 50 |
| Cc1cc(-n2cc(F)cn2)c2cccc(OCc3c(Cl)cc(F)cc3[C@H](C)NC(=O)[C@H]3COC(C)(C)O3)c2n1 [Compound 62] | 51 to 250 |
| Cc1cc(-c2ncnn2C)c2cccc(OCc3c(Cl)cc(F)cc3[C@H](C)NC(=O)[C@@H](C)O)c2n1 [Compound 63] | ≤ 50 |
| Cc1cc(-c2ncnn2C)c2cccc(OCc3c(Cl)cc(F)cc3[C@H](C)NC(=O)C(C)(C)O)c2n1 [Compound 64] | ≤ 50 |
| Cc1cc(-n2cc(F)cn2)c2cccc(OCc3c(Cl)cc(F)cc3[C@H](C)NC(=O)C3CN(C)C3)c2n1 [Compound 65] | 251 to 1000 |
| Cc1cc(-n2cc(F)cn2)c2cccc(OCc3c(Cl)cc(F)cc3[C@H](C)NC(=O)[C@@H](O)CCN)c2n1 [Compound 66] | 51 to 250 |
| Cc1cc(-n2cc(F)cn2)c2cccc(OCc3c(Cl)cc(F)cc3[C@H](C)NC(=O)[C@H](O)C(C)C)c2n1 [Compound 67] | 51 to 250 |
| Cc1cc(-n2cc(F)cn2)c2cccc(OCc3c(Cl)cc(F)cc3[C@H](C)NC(=O)C3CNC3)c2n1 [Compound 68] | 51 to 250 |
| COC(=O)[C@H](O)CC(=O)N[C@@H](C)c1cc(F)cc(Cl)c1COc1cccc2c(-n3cc(F)cn3)cc(C)nc12 [Compound 69] | 51 to 250 |
| COC(=O)[C@@H](O)CC(=O)N[C@@H](C)c1cc(F)cc(Cl)c1COc1cccc2c(-n3cc(F)cn3)cc(C)nc12 [Compound 70] | ≤ 50 |
| Cc1cc(-n2cc(F)cn2)c2cccc(OCc3c(Cl)cc(F)cc3[C@H](C)NC(=O)C(CO)CO)c2n1 [Compound 71] | ≤ 50 |
| Cc1cc(-n2cc(F)cn2)c2cccc(OCc3c(Cl)cc(F)cc3[C@H](C)NC(=O)[C@@H](O)CCN(C)C)c2n1 [Compound 72] | 251 to 1000 |
| Cc1cc(-n2cc(F)cn2)c2cccc(OCc3c(Cl)cc(F)cc3[C@H](C)NC(=O)c3cocn3)c2n1 [Compound 82] | ≤ 50 |
| COCC(=O)N[C@@H](C)c1cc(F)cc(Cl)c1COc1cccc2c(-c3ncnn3C)cc(C)nc12 [Compound 83] | ≤ 50 |

| Structure (SMILES) | IC50 [nM] |
| --- | --- |
| CCOCC(=O)N[C@@H](C)c1cc(F)cc(Cl)c1COc1cccc2c(-c3ncnn3C)cc(C)nc12 [Compound 84] | ≤ 50 |
| Cc1cc(-c2ncnn2C)c2cccc(OCc3c(Cl)cc(F)cc3[C@H](C)NC(=O)[C@@H](C)OC(F)F)c2n1 [Compound 85] | ≤ 50 |
| Cc1cc(-n2cc(F)cn2)c2cccc(OCc3c(Cl)cc(F)cc3[C@H](C)NC(=O)c3cc(C)n(C)n3)c2n1 [Compound 86] | 51 to 250 |
| Cc1cc(-n2cc(F)cn2)c2cccc(OCc3c(Cl)cc(F)cc3[C@H](C)NC(=O)c3c(C)noc3C)c2n1 [Compound 87] | 51 to 250 |
| Cc1cc(-n2cc(F)cn2)c2cccc(OCc3c(Cl)cc(F)cc3[C@H](C)NC(=O)c3cc(C)on3)c2n1 [Compound 88] | 51 to 250 |
| Cc1cc(-n2cc(F)cn2)c2cccc(OCc3c(Cl)cc(F)cc3[C@H](C)NC(=O)c3cnoc3C)c2n1 [Compound 89] | 51 to 250 |
| Cc1cc(-n2cc(F)cn2)c2cccc(OCc3c(Cl)cc(F)cc3[C@H](C)NC(=O)c3cncs3)c2n1 [Compound 90] | ≤ 50 |
| Cc1cc(-n2cc(F)cn2)c2cccc(OCc3c(Cl)cc(F)cc3[C@H](C)NC(=O)c3ocnc3C)c2n1 [Compound 91] | ≤ 50 |
| Cc1cc(-n2cc(F)cn2)c2cccc(OCc3c(Cl)cc(F)cc3[C@H](C)NC(=O)c3coc(C)n3)c2n1 [Compound 92] | ≤ 50 |
| Cc1cc(-n2cc(F)cn2)c2cccc(OCc3c(Cl)cc(F)cc3[C@H](C)NC(=O)[C@@H](C)OC(F)F)c2n1 [Compound 93] | 51 to 250 |
| Cc1cc(-n2ncnc2C)c2cccc(OCc3c(Cl)cc(F)cc3[C@H](C)NC(=O)c3cnco3)c2n1 [Compound 95] | ≤ 50 |
| Cc1cc(-n2cnc(C)n2)c2cccc(OCc3c(Cl)cc(F)cc3[C@H](C)NC(=O)c3cnco3)c2n1 [Compound 96] | 51 to 250 |
| Cc1cc(-n2ncnc2C)c2cccc(OCc3c(Cl)cc(F)cc3[C@H](C)NC(=O)[C@@H](C)O)c2n1 [Compound 97] | 51 to 250 |
| Cc1cc(-n2cnc(C)n2)c2cccc(OCc3c(Cl)cc(F)cc3[C@H](C)NC(=O)[C@@H](C)O)c2n1 [Compound 98] | 251 to 1000 |
| CC[C@@H](O)C(=O)N[C@@H](C)c1cc(F)cc(Cl)c1COc1cccc2c(-n3ncnc3C)cc(C)nc12 [Compound 99] | 51 to 250 |
| CC[C@@H](O)C(=O)N[C@@H](C)c1cc(F)cc(Cl)c1COc1cccc2c(-n3cnc(C)n3)cc(C)nc12 [Compound 100] | 251 to 1000 |
| Cc1cc(-n2cc(F)cn2)c2cccc(OCc3c(Cl)cc(F)cc3[C@H](C)N(C)C(=O)C(C)(C)O)c2n1 [Compound 101] | ≤ 50 |
| Cc1cc(-n2cc(F)cn2)c2cccc(OCc3c(Cl)cc(F)cc3[C@H](C)N(C)C(=O)CO)c2n1 [Compound 102] | ≤ 50 |
| Cc1cc(-n2cc(F)cn2)c2cccc(OCc3c(Cl)cc(F)cc3[C@H](C)N(C)C(=O)[C@H](C)Cl)c2n1 [Compound 103] | 51 to 250 |
| Cc1cc(-n2cc(F)cn2)c2cccc(OCc3c(Cl)cc(F)cc3[C@H](CO)NC(=O)C(C)(C)O)c2n1 [Compound 105] | 51 to 250 |
| Cc1cc(-n2cc(F)cn2)c2cccc(OCc3c(Cl)cc(F)cc3[C@H](CO)NC(=O)COC(F)F)c2n1 [Compound 106] | ≤ 50 |
| COCCC(=O)N[C@@H](CO)c1cc(F)cc(Cl)c1COc1cccc2c(-n3cc(F)cn3)cc(C)nc12 [Compound 107] | ≤ 50 |
| Cc1cc(-n2cc(F)cn2)c2cccc(OCc3c(Cl)cc(F)cc3[C@H](C)NC(=O)c3cn(C)cn3)c2n1 [Compound 108] | 51 to 250 |
